Here are results for 1 molecule from patent publication US9682999B2, “Benzofuran compounds for the treatment of hepatitis C virus infections” (Glaxo Group Limited, priority 2011, dated 2017).

Data set [1] relates to sub-genomic HCV NS3-NS5B replicon genotype 1a (Huh-7 cells). The experiment in a line: Replicon luciferase cell based assay, genotype 1a. Particulars: Hepatitis C virus; Huh-7 genotype 1a luciferase replicon, 48 hours; read-out: EC50 GT 1a. In outline: (§1)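 Huh-7 cells stably carrying luciferase-linked NS3-NS5B replicons (1b ET, 1a H77 with P1496L/S2204I, plus C316N/C316Y NS5B mutants) treated with a 10-point 1:3 compound series for 48 h at 37 °C. Inhibition read as Steady-Glo luminescence against compound-free cells after background subtraction. EC50 from curve fit, averaged over two plates.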
A general note: A replicon is a self-replicating genome or part of one, used to study replication in cells.

The subject of data set [2] is sub-genomic HCV NS3-NS5B replicon genotype 1b (Huh-7 cells). The experiment in a line: Replicon luciferase cell based assay, genotype 1b. The following applies: Hepatitis C virus; Huh-7 genotype 1b luciferase replicon, 48 hours; read-out: EC50 GT1b. In outline: as §1
Data set [3] has as its system sub-genomic HCV NS3-NS5B replicon genotype 1b C316N (Huh-7 cells). In words: Replicon luciferase cell based assay, genotype 1b C316N. Particulars: Hepatitis C virus, Huh-7, 48 h, read-out: EC50 1b 316N. In short, it runs like this: as §1
Data set [4] deals with sub-genomic HCV NS3-NS5B replicon genotype 1a C316Y (Huh-7 cells). The experiment in a line: Replicon luciferase cell based assay, genotype 1a C316Y. The following applies: Hepatitis C virus, Huh-7, 48 h, read-out: EC50 1a 316Y. In short, it runs like this: as §1
A short description of data set [5]: In vivo pharmacokinetic study, mouse. As to the method:
(§2) In vivo pharmacokinetic studies were conducted in mouse, rat, dog, or cynomolgus monkey to determine clearance, oral exposure and bioavailability (% F). Solution doses of the compounds were administered intravenously through catheters or orally by gavage. Blood samples were collected at the following time points (n=2 or 3/route/species): 0.083 (IV only), 0.167 (IV only), 0.25, 0.5, 1, 2, 4, 6, 8, 12, and 24 h. Non-compartmental pharmacokinetic parameters were determined using Phoenix Winnonlin 6.1 (Pharsight, Mountain View, Calif.). Bioavailability of the oral formulation of each compound were calculated as the ratio of the oral dose normalized AUCinf to the intravenous dose normalized AUCinf. Results are expressed in Table 2.

A short description of data set [6]: In vivo pharmacokinetic study, rat. As to the method:
as §2

Data set [7] is described as follows: In vivo pharmacokinetic study, dog. As to the method: as §2
Data set [8] is described as follows: In vivo pharmacokinetic study, monkey. Also on record: species or system cynomolgus monkey. As to the method: as §2
Data set [9] is described as follows: Hepatocyte incubations, metabolic stability. The following applies: cryopreserved human hepatocytes, 0.25×10^6 cells, up to 120 min, 37 C. Also noted: dose or concentration left out as unconfirmed. It is filed as in vitro ADME. As to the method:
Hepatocyte incubations were conducted using cryopreserved hepatocytes purchased from CellzDirect (Durham, N.C.). Cryopreserved hepatocytes were removed from liquid nitrogen and thawed according to XenoTech's guidelines listed in “XenoTech Protocol for Thawing Cryopreserved Hepatocytes” using Hepatocyte Isolation Kit K2000 (Dec. 13, 2004). Hepatocytes were diluted to 1 million cells in 1 mL of Williams E media containing 25 mM HEPES buffer and 2 mM Glutamax.
Hepatocyte incubations were carried out in 96-well plates on an Eppendorf shaker at 350 rpm at 37 C. Reaction mixtures consisted of 0.25×10^6 cells and […] test compound (to maintain a 0.05% final DMSO concentration) in a final volume of 0.5 mL. An initial time-point (t0) was collected and subsequent aliquots were collected at 15, 30, 60, 90, and 120 min. Reactions were terminated by transferring […] of the incubation mixture into a 96-well plate containing […] of an organic mixture [acetonitrile and methanol (80:20)] at 4° C. Precipitated protein was removed by centrifugation and the resultant supernatant was transferred to a new 96-well polypropylene plate for LC/MS/MS analysis. Drug-free matrix control and 2 QC standards (phenacetin and propranolol) were included in each experiment and treated in the same manner as test compound.
Metabolic stability expressed as the percentage of parent compound remaining was calculated from the peak area ratio of compound remaining after incubation (tx) compared to the time zero (t0) incubation.
The half-life (t1/2) was calculated using the following equation: […]
Where K is the slope of the ln % remaining vs. time regression. Half-life values were only reported when at least 15% loss of parent compound was observed.

As for `CNC(=O)c1c(-c2ccc(F)cc2)oc2cc(N(c3cc(Cl)c4c(c3)COB4O)S(C)(=O)=O)c(C3CC3)cc12` [Example 15, 6-(N-(7-chloro-1-hydroxy-1,3-dihydrobenzo[c][1,2]oxaborol-5-yl)methylsulfonamido)-5-cyclopropyl-2-(4-fluorophenyl)-N-methylbenzofuran-3-carboxamide], the EC50 (usually the midpoint of the concentration-response curve) in data set [1] is 1 to 10 nM; in data set [2], 1 to 10 nM; in data set [3], 1 to 10 nM; in data set [4], 11 to 200 nM. Besides, the DNAUC was found to be 14603 ng·h/mL/mg/kg in data set [5] (Mouse), 1089 ng·h/mL/mg/kg in data set [6] (Rat) and 11480 ng·h/mL/mg/kg in data set [7] (Dog). Also, the “T 1/2” value in data set [5] (Mouse) is 8.4 H; in data set [6] (Rat), 2.8 H; in [7] (Dog), 6.9 H; in data set [8] (Monkey), 3.7 H. Moreover, the clearance – broadly, the rate of elimination divided by the concentration – in [5] (mouse, blood, intravenous) was 0.7 mL/min/kg; in data set [6] (rat, blood, intravenous), 6.9 mL/min/kg; in [7] (dog, blood, intravenous), 1.2 mL/min/kg; in data set [8] (cynomolgus monkey, blood, intravenous) it was 5.7 mL/min/kg. Moreover, the Vd is 0.4 L/kg in data set [5] (mouse, blood, intravenous, read-out: Vss); 0.9 L/kg in data set [6] (rat, blood, intravenous, read-out: Vss); 0.6 L/kg in data set [7] (dog, blood, intravenous, read-out: Vss); 1.2 L/kg in data set [8] (cynomolgus monkey, blood, intravenous, read-out: Vss). Also, the bioavailability (commonly the share of a dose that reaches the circulation, judged against a reference dose that is usually intravenous) in data set [5] (mouse, blood, oral) was 39%; in data set [6] (rat, blood, oral), 43%; in [7] (dog, blood, oral), 82%. Besides, the half-life (commonly the time needed for the level to fall by half in the phase considered) in data set [9] is over 6 h.
